From US6057286A, “Identification and use of selective inhibitors of glycogen synthase kinase 3” (Chiron Corporation, priority 1997, dated 2000)

Tests used:
[1] = test system: HepG2 liver cells; test: Insulin- and glucose-stimulated glycogen synthase activity in stable tissue culture cells; assay type: cell-based; settings: addition of insulin and glucose, in the presence of the GSK3 inhibitor
Description: Assays for glucose uptake and glycogen synthesis can be conducted as described for cell-based assays generally. To measure glucose uptake and glycogen synthesis, a variety of stable tissue culture cell lines that respond to insulin stimulation by increasing the synthesis of glycogen and increasing the rate of glucose uptake from the medium can be used. These include HepG2 liver cells, CHO-IR cells, and Hirc cells. Under appropriate conditions the addition of insulin and glucose to HepG2 cells stimulates glycogen synthase activity and this stimulation of potentiated in the presence of the GSK3 inhibitor iodotubercidin. The response of glucose uptake in these cells to insulin, glucose and inhibitor can be as much as six fold, and consequently this assay is useful to detect the ability of inhibitors to potentiate glycogen synthesis in cells.

[2] = test system: Drosophila cells; test: β-catenin stabilization assay of intracellular GSK3 activity (western blot); assay type: cell-based; settings: addition to Drosophila cells; detected on a western blot
Description: Other assays that test functional GSK3 also provide a further test of intracellular GSK3 activity. These assays rely on the ability to observe indirect consequences of GSK3 activity within cells. An example of such an assay involves β-catenin stabilization. Cellular GSK3 activity leads to the destabilization of cytosolic pools of β-catenin in certain types of cell. Consequently, inhibition of GSK3 results in β-catenin stabilization and accumulation, which be detected on a western blot. […] Similarly, LiCl in the cell culture medium causes an increase in intracellular β-catenin levels as described in Stambolic et al, Cur. Biol. 6(12): 1664-8 (1996).

In the case of `Nc1ncnc2c1c(I)cn2[C@@H]1O[C@H](CO)[C@@H](O)[C@H]1O` [iodotubercidin], the “stimulation of glycogen synthase activity by insulin and glucose” value [1] is reported as “potentiated” and the β-catenin accumulation [2] is reported as “leads to β-catenin accumulation”.
